Test results from the supplement of paper PMC7108870.

What was measured:
HEK293sieSTAT3(Y640F) [1] = assay: drug sensitivity score (DSS), cytotoxicity CellTox Green (DSS (dimensionless)); higher = more cytotoxic; extreme values may be limits of the assay; conditions: 72 h; STAT3 variant: Y640F (constitutively active)
Procedure, shortened: (§1)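 Compounds were acoustically pre-plated in 384-well plates at 5 concentrations spaced by 10-fold dilutions, and HEK293 cells overexpressing wild-type or mutant STAT3 and carrying a STAT3-dependent luciferase reporter were added at 100,000 cells/ml in 20 μl. After 72 hours at 37°C and 5% CO2, the plates were read on a PHERAstar FS for CellTox Green fluorescence (485/520 nm) and then CellTiter-Glo luminescence. A drug sensitivity score derived from dose-response curve area was calculated in Breeze from values normalised to negative and positive control wells.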

HEK293sieSTAT3(wt) [2] = assay: as above; conditions: 72 h; STAT3 variant: wild type
Procedure, shortened: as §1

HEK293sieSTAT3(Y640F) [3] = assay: drug sensitivity score (DSS), viability CellTiter-Glo (DSS (dimensionless)); higher = more growth inhibition; extreme values may be limits of the assay; conditions: 72 h; STAT3 variant: Y640F (constitutively active)
Procedure, shortened: as §1

HEK293sieSTAT3(wt) [4] = assay: as above; conditions: 72 h; STAT3 variant: wild type
Procedure, shortened: as §1

## CC(C)(C#N)c1cc(Cn2cncn2)cc(C(C)(C)C#N)c1 [Anastrozole] (top concentration tested 10000 nM)
HEK293sieSTAT3(Y640F) [1]
  drug sensitivity score: 0
HEK293sieSTAT3(wt) [2]
  drug sensitivity score: 0
HEK293sieSTAT3(Y640F) [3]
  drug sensitivity score: 0.01
HEK293sieSTAT3(wt) [4]
  drug sensitivity score: 0

## COc1cc2c(cc1-c1c(C)noc1C)ncc1[nH]c(=O)n([C@H](C)c3ccccn3)c12 [I-BET151] (top concentration tested 10000 nM)
HEK293sieSTAT3(Y640F) [1]
  drug sensitivity score: 2.48
HEK293sieSTAT3(wt) [2]
  drug sensitivity score: 6.67
HEK293sieSTAT3(Y640F) [3]
  drug sensitivity score: 8.85
HEK293sieSTAT3(wt) [4]
  drug sensitivity score: 5.57

## C=CC(=O)Nc1cccc(Nc2nc(Nc3ccc(OCCOC)cc3)ncc2F)c1 [Spebrutinib] (top concentration tested 1000 nM)
HEK293sieSTAT3(Y640F) [1]
  drug sensitivity score: 0
HEK293sieSTAT3(wt) [2]
  drug sensitivity score: 0
HEK293sieSTAT3(Y640F) [3]
  drug sensitivity score: 2.4
HEK293sieSTAT3(wt) [4]
  drug sensitivity score: 0

## C[C@]12C=CC(=O)C=C1CC[C@@H]1[C@@H]2C(=O)C[C@@]2(C)[C@H]1CC[C@]2(O)C(=O)CO [Prednisone] (top concentration tested 10000 nM)
HEK293sieSTAT3(Y640F) [1]
  drug sensitivity score: 0.59
HEK293sieSTAT3(wt) [2]
  drug sensitivity score: 0
HEK293sieSTAT3(Y640F) [3]
  drug sensitivity score: 0.65
HEK293sieSTAT3(wt) [4]
  drug sensitivity score: 3.96

## COc1c(C)cnc(Cn2cnc3c(Cl)nc(N)nc32)c1C [BIIB021] (top concentration tested 10000 nM)
HEK293sieSTAT3(Y640F) [1]
  drug sensitivity score: 9.95
HEK293sieSTAT3(wt) [2]
  drug sensitivity score: 24.2
HEK293sieSTAT3(Y640F) [3]
  drug sensitivity score: 24.6
HEK293sieSTAT3(wt) [4]
  drug sensitivity score: 27.9

## Nc1ccccc1NC(=O)c1ccc(CNC(=O)OCc2cccnc2)cc1 [Entinostat] (top concentration tested 10000 nM)
HEK293sieSTAT3(Y640F) [1]
  drug sensitivity score: 0.1
HEK293sieSTAT3(wt) [2]
  drug sensitivity score: 1.29
HEK293sieSTAT3(Y640F) [3]
  drug sensitivity score: 8.12
HEK293sieSTAT3(wt) [4]
  drug sensitivity score: 8.98

## S=C(NCc1ccc2c(c1)OCO2)N1CCN(c2ncnc3c2oc2ccccc23)CC1 [Amuvatinib] (top concentration tested 10000 nM)
HEK293sieSTAT3(Y640F) [1]
  drug sensitivity score: 3.08
HEK293sieSTAT3(wt) [2]
  drug sensitivity score: 8.39
HEK293sieSTAT3(Y640F) [3]
  drug sensitivity score: 5.74
HEK293sieSTAT3(wt) [4]
  drug sensitivity score: 5.71

## COc1ccc(S(=O)(=O)Nc2cccnc2Nc2ccc(O)cc2)cc1 [ABT-751] (top concentration tested 10000 nM)
HEK293sieSTAT3(Y640F) [1]
  drug sensitivity score: 2.68
HEK293sieSTAT3(wt) [2]
  drug sensitivity score: 9.49
HEK293sieSTAT3(Y640F) [3]
  drug sensitivity score: 11.4
HEK293sieSTAT3(wt) [4]
  drug sensitivity score: 14.3

## CCn1c(-c2nonc2N)nc2c(C#CC(C)(C)O)ncc(OC[C@H]3CCCNC3)c21 (top concentration tested 10000 nM)
HEK293sieSTAT3(Y640F) [1]
  drug sensitivity score: 0.19
HEK293sieSTAT3(wt) [2]
  drug sensitivity score: 1.28
HEK293sieSTAT3(Y640F) [3]
  drug sensitivity score: 13.7
HEK293sieSTAT3(wt) [4]
  drug sensitivity score: 16.9

## Cn1cc(C2=C(c3cn(C4CCN(Cc5ccccn5)CC4)c4ccccc34)C(=O)NC2=O)c2ccccc21 [Enzastaurin] (top concentration tested 10000 nM)
HEK293sieSTAT3(Y640F) [1]
  drug sensitivity score: 0
HEK293sieSTAT3(wt) [2]
  drug sensitivity score: 0
HEK293sieSTAT3(Y640F) [3]
  drug sensitivity score: 1.73
HEK293sieSTAT3(wt) [4]
  drug sensitivity score: 1.34

## Cn1cc(-c2cnn3c(N)c(Br)c([C@@H]4CCCNC4)nc23)cn1 [MK-8776] (top concentration tested 2500 nM)
HEK293sieSTAT3(Y640F) [1]
  drug sensitivity score: 1.03
HEK293sieSTAT3(wt) [2]
  drug sensitivity score: 3.43
HEK293sieSTAT3(Y640F) [3]
  drug sensitivity score: 5.89
HEK293sieSTAT3(wt) [4]
  drug sensitivity score: 6.83

## COc1cc2nccc(Oc3ccc(NC(=O)NC4CC4)c(Cl)c3)c2cc1C(N)=O [Lenvatinib] (top concentration tested 2500 nM)
HEK293sieSTAT3(Y640F) [1]
  drug sensitivity score: 0
HEK293sieSTAT3(wt) [2]
  drug sensitivity score: 0
HEK293sieSTAT3(Y640F) [3]
  drug sensitivity score: 2.04
HEK293sieSTAT3(wt) [4]
  drug sensitivity score: 2.2

## COc1cc2c(NC3CCN(C(C)C)CC3)nc(C3CCCCC3)nc2cc1OCCCN1CCCC1 [UNC0638] (top concentration tested 10000 nM)
HEK293sieSTAT3(Y640F) [1]
  drug sensitivity score: 6.64
HEK293sieSTAT3(wt) [2]
  drug sensitivity score: 7.19
HEK293sieSTAT3(Y640F) [3]
  drug sensitivity score: 5.62
HEK293sieSTAT3(wt) [4]
  drug sensitivity score: 7.26

## O=C(Nc1ccncc1)C(=O)c1cn(Cc2ccc(Cl)cc2)c2ccccc12 [Indibulin] (top concentration tested 10000 nM)
HEK293sieSTAT3(Y640F) [1]
  drug sensitivity score: 1.19
HEK293sieSTAT3(wt) [2]
  drug sensitivity score: 5.57
HEK293sieSTAT3(Y640F) [3]
  drug sensitivity score: 10.7
HEK293sieSTAT3(wt) [4]
  drug sensitivity score: 16

## O=C(Nc1cc(Cl)cc2c1[nH]c1cnccc12)c1cccnc1 [PS-1145] (top concentration tested 25000 nM)
HEK293sieSTAT3(Y640F) [1]
  drug sensitivity score: 1.94
HEK293sieSTAT3(wt) [2]
  drug sensitivity score: 0.08
HEK293sieSTAT3(Y640F) [3]
  drug sensitivity score: 0
HEK293sieSTAT3(wt) [4]
  drug sensitivity score: 3.94

## Cc1c2oc3c(C)ccc(C(=O)N[C@@H]4C(=O)N[C@H](C(C)C)C(=O)N5CCC[C@H]5C(=O)N(C)CC(=O)N(C)[C@@H](C(C)C)C(=O)O[C@@H]4C)c3nc-2c(C(=O)N[C@@H]2C(=O)N[C@H](C(C)C)C(=O)N3CCC[C@H]3C(=O)N(C)CC(=O)N(C)[C@@H](C(C)C)C(=O)O[C@@H]2C)c(N)c1=O [Dactinomycin] (top concentration tested 1000 nM)
HEK293sieSTAT3(Y640F) [1]
  drug sensitivity score: 0
HEK293sieSTAT3(wt) [2]
  drug sensitivity score: 0
HEK293sieSTAT3(Y640F) [3]
  drug sensitivity score: 32.5
HEK293sieSTAT3(wt) [4]
  drug sensitivity score: 35.4

## COc1ccc(-c2ccc3c(N4CCOC[C@@H]4C)nc(N4CCOC[C@@H]4C)nc3n2)cc1CO [AZD8055] (top concentration tested 10000 nM)
HEK293sieSTAT3(Y640F) [1]
  drug sensitivity score: 0
HEK293sieSTAT3(wt) [2]
  drug sensitivity score: 3.7
HEK293sieSTAT3(Y640F) [3]
  drug sensitivity score: 25.7
HEK293sieSTAT3(wt) [4]
  drug sensitivity score: 26.8
